# Results as given in patent US20240208992A1, “MACROCYCLES AS CFTR MODULATORS” (Idorsia Pharmaceuticals Ltd, priority 2021, published 2024).
# Like-named read-outs stand apart in the source and are kept apart here.
# How the values were obtained:
# human F508del-CFTR = human F508del-CFTR (Homo sapiens, UniProt P13569, DEL508-508); assay: F508del-CFTR cell surface expression (corrector activity), DiscoveRx ß-galactosidase complementation chemiluminescence assay in recombinant U2OS cell line;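 also: U2OS cells co-expressing ProLink-tagged F508del-CFTR and a membrane-anchored enzyme acceptor, where more surface CFTR restores β-galactosidase activity measured by chemiluminescence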
# human F508del-CFTR, sequence (P13569 with tags, fused parts or gaps DEL508-508): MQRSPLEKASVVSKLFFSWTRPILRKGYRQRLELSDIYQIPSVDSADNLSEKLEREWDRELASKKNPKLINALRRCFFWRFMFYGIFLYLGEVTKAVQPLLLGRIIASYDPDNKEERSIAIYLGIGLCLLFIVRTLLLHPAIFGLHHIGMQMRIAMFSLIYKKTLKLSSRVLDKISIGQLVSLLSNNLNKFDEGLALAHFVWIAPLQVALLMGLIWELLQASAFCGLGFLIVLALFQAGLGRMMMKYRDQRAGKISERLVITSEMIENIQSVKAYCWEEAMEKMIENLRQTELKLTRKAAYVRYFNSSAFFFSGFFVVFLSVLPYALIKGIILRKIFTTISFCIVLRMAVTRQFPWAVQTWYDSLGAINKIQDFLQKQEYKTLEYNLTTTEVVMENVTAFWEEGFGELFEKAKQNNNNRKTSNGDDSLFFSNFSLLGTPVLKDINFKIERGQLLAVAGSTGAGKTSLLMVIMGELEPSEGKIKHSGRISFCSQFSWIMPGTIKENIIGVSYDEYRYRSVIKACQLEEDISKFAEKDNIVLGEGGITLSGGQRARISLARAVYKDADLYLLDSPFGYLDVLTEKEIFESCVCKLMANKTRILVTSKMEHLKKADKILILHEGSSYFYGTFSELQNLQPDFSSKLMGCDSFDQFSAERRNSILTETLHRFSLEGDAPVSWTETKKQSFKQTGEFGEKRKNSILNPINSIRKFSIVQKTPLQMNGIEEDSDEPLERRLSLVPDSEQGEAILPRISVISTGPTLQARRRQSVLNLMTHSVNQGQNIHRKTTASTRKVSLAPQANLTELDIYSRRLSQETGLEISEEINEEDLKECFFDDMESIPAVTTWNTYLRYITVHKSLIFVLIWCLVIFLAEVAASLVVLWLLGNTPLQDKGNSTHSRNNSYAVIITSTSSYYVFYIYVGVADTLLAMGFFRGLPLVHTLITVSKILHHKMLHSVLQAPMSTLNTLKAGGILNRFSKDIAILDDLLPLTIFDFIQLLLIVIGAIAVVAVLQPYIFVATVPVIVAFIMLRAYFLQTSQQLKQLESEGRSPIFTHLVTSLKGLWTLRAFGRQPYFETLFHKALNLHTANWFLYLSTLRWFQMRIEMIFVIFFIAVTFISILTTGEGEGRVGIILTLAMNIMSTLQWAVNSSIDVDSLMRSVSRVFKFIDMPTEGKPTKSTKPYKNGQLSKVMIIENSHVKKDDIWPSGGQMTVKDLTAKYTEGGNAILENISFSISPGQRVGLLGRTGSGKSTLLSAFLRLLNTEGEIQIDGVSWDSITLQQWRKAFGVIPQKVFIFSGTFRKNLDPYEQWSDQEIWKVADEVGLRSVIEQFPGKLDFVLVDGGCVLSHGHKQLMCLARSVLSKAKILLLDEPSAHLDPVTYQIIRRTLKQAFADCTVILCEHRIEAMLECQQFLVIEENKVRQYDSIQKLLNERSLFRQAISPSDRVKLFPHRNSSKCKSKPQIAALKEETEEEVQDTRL
# [1] = amide bond, 17-membered ring
# [2] = the molecule shown is the open-chain precursor; amide bond; 17-membered ring; 2 steps
# [3] = amide bond
smiles,measurement,setting,value
"COc1cccc(CCNC(=O)[C@@H]2CC(=O)N(C)[C@@H](CC(C)C)C(=O)N(C)[C@H](COCc3ccccc3)C(=O)N[C@H](Cc3ccccc3)COc3ccc4ccccc4c3C(=O)N2)c1 [Example 713, (3S,7S,10R,13R)-13-benzyl-10-((benzyloxy)methyl)-7-isobutyl-N-(3-methoxyphenethyl)-6,9-dimethyl-1,5,8,11-tetraoxo-1,2,3,4,5,6,7,8,9,10,11,12,13,14-tetradecahydronaphtho[1,2-p][1]oxa[4,7,10,14]tetraazacycloheptadecine-3-carboxamide]",EC50,"human F508del-CFTR; EC50, F508del-CFTR cell surface expression, U2OS cells, 16h compound incubation, geomean values",31 nM
same,Emax,"human F508del-CFTR; U2OS, in relation to Emax of corrector lumacaftor (=100%), arithmetic mean values",432%
same,"ring closure, yield after HPLC","[1]; from CN[C@@H](CC(C)C)C(=O)N(C)[C@H](COCc1ccccc1)C(=O)N[C@@H](COc1ccc2ccccc2c1C(=O)N[C@@H](CC(=O)O)C(=O)NCCc1cccc(OC)c1)Cc1ccccc1, HATU/DIEA, DMF, 41.0 mM, 25.0 °C",82%
CC(C)C[C@@H](C(=O)N1CCCC[C@@H]1C(=O)N[C@@H](COc1cnc2ccccc2c1C(=O)N[C@@H](CC(=O)OC(C)(C)C)C(=O)OCc1ccccc1)Cc1ccccc1)N(C)C(=O)OC(C)(C)C,"ring closure, isolated yield",[2],58%
CC(C)C[C@H]1C(=O)N(CCC(C)(C)C)CC(=O)N[C@H](Cc2ccccc2)COc2cc3c(cc2C(=O)N[C@H](C(=O)O)CC(=O)N1C)OCO3,"ring closure, yield of all isomers","[3]; from CN[C@@H](CC(C)C)C(=O)N(CCC(C)(C)C)CC(=O)N[C@@H](COc1cc2c(cc1C(=O)N[C@@H](CC(=O)O)C(=O)O)OCO2)Cc1ccccc1, pentafluorophenyl diphenylphosphinate (FDPP), DMF/DCM, 67.5 mM, 5.0 h, 11 steps",26%
COc1nccc2c1C(=O)N[C@H](C(=O)NCCc1nc(C3CC3)no1)CC(=O)N(C)[C@@H](CC(C)C)C(=O)N(C)C(COCc1ccccc1)C(=O)N[C@H](Cc1ccccc1)CO2 (some centres unmarked),"ring closure, yield after HPLC","[1]; from CN[C@@H](CC(C)C)C(=O)N(C)C(COCc1ccccc1)C(=O)N[C@@H](COc1ccnc(OC)c1C(=O)N[C@@H](CC(=O)O)C(=O)NCCc1nc(C2CC2)no1)Cc1ccccc1, HATU/DIEA, DMF, 60.0 mM",82%
COc1cc2c(cc1OC)C(=O)N[C@H](C(=O)OCc1ccccc1)CC(=O)N(C)[C@@H](CC1CC1)C(=O)N(CCC1CCCCC1)CC(=O)N[C@H](Cc1ccccc1)CO2,"ring closure, yield of all isomers","[3]; from CN[C@@H](CC1CC1)C(=O)N(CCC1CCCCC1)CC(=O)N[C@@H](COc1cc(OC)c(OC)cc1C(=O)N[C@@H](CC(=O)O)C(=O)OCc1ccccc1)Cc1ccccc1, FDPP, DCM, 50.0 °C, 12.0 h",13%
same,"ring closure, yield after HPLC","[1]; from CN[C@@H](CC1CC1)C(=O)N(CCC1CCCCC1)CC(=O)N[C@@H](COc1cc(OC)c(OC)cc1C(=O)N[C@@H](CC(=O)O)C(=O)OCc1ccccc1)Cc1ccccc1, FDPP, DCM, 50.0 °C",13%
